{
  "source": "patent US20210317090A1",
  "about": "“AMINO ACID DEPLETION AGENTS AS ANTIPROLIFERATIVE AGENTS” (University of Central Florida Research Foundation, Inc., priority 2018, published 2021)",
  "key": {"[1]": {"target": "T1, LAT-1 (Homo sapiens, UniProt Q01650)", "T1 construct": "endogenous in cells; host or cells: L3.6pl human pancreatic cancer cells", "T1 sequence (Q01650 whole entry)": "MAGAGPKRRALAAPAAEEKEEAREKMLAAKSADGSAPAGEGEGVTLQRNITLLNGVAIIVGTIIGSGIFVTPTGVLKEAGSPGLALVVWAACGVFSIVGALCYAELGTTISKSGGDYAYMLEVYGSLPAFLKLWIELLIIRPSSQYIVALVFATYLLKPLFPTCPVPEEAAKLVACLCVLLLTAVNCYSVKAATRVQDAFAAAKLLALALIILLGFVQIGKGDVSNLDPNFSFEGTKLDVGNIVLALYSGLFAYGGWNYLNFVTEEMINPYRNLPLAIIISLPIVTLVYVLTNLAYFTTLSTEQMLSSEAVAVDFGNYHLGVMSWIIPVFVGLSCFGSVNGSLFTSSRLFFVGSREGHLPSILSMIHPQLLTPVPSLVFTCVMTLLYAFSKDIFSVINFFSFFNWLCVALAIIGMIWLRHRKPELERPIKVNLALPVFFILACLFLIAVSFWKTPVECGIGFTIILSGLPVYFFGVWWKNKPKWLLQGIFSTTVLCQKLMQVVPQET", "T1 sequence (P08195 102-630 partner)": "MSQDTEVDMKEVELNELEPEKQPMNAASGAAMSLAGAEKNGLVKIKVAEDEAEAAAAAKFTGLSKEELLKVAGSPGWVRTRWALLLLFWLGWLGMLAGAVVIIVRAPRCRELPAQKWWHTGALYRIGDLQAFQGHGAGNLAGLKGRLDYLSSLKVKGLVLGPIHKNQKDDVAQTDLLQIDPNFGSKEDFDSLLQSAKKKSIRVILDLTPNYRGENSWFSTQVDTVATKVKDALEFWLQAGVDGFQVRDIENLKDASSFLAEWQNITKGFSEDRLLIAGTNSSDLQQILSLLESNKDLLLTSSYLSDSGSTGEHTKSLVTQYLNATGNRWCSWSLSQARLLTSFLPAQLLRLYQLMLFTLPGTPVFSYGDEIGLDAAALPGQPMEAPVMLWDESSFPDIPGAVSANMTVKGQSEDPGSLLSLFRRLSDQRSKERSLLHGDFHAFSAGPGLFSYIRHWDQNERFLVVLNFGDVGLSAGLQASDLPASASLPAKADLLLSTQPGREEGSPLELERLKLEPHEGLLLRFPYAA", "experiment": "3H-Leucine uptake assay", "format": "cell-based", "conditions": "L3.6pl cells, increasing concentration, 15 min uptake (FIG. 10D, 10E)", "experimental": "^3H-Leucine uptake experiments were performed according to the protocol developed by Hälfliger et al. (2018) (referenced below with the following changes. Briefly, cells were seeded at 60% confluency in a 24-well plate and incubated for 4 h at 37° C. After 4 hours, different concentrations of compound 10 were added and the cells were then incubated overnight. L-^3H-leucine uptake inhibition was measured for 15 minutes using a 12 μM stock of L-[^3H]leucine (79 Ci/mmol). The final concentration of ^3H-leucine in each well was 1.2 uM. This concentration produced a CPM reading of ˜4000 cpm for the control. Uptake was terminated by removing the buffer solution followed by washing the cells with cold Na^+-free Hank's Balanced Salt Solution. Cells were then lysed to give ˜500 μL of cell lysate. A portion of the cell lysate (200 μL) was mixed with Scintiverse™ BD Cocktail for determining radiocounts. The radioactivity was measured with a scintillation counter (Beckman Coulter LS 6500 Multi-Purpose Scintillation Counter). Another portion of the cell lysate (300 μL) was used for protein determination using the BCA method. The final data was expressed as cpm/microgram of protein to account for the different number of cells remaining after the experiment. This was necessary because compound 10 was toxic and less cells were present after the overnight incubation (24 h). […]"}, "[2]": {"system": "L3.6pl cells", "experiment": "Intracellular leucine and methionine after cell lysis (LCMS)", "format": "cell-based, human", "conditions": "72 h", "experimental": "This example illustrates aspects according to various embodiments pertaining to a 72 h experiment with Compound 10 in L3.6pl cells. Ten milliliters of a cell suspension containing L3.6pl human pancreatic cancer cells (50,000 cells/mL) and aminoguanidine ([…]) were placed in treated plastic Petri dishes (d=9 cm) and incubated overnight at 37° C. After 24 h, the cells were dosed with compound 10 at 2 μM, 5 μM, or 7 μM. (Note: Stock solutions of 10 at 2, 5, and 7 mM were dissolved in phosphate buffered saline (PBS) and were filtered through a 0.2 μm filter prior to use. The experiments were maintained with a total volume of 10.01 mL where 10 mL of the cell suspension was placed in a plastic dish and each compound or the equivalent PBS volume was added to make up the total volume 10.01 mL for each dish. For example, for the control experiment PBS (10 μL) was added to make up the total volume (10 mL+10 μL=10.01 mL). After 72 h incubation, the cells were collected first by pipetting off the supernatant containing floating dead cells from the culture dish as well as media and placing them into 15 mL tubes. The supernatant containing floating cells was centrifuged (4 min at 1,000 rpm). The cell-free supernatant (supernatant #1) was collected into a new 15 mL tube and quantified (˜8.6 mL) and was then stored frozen and was later quantified by LCMS to investigate the media composition of particular polyamine and amino acid analytes. The attached cells on the dish were washed with PBS (5 mL). The PBS wash was removed by suction and additional PBS (2 mL) was added and again suctioned off to provide twice-washed cells still adhered to the dish. Trypsin (2 mL) was then added to each dish and incubated (3-5 min) until all the cells were detached. Fresh media (8 mL) was added to quench the trypsin. The cell solutions were pipetted into separate 15 mL tubes and centrifuged (4 min at 1,000 rpm). The resulting supernatant was removed to provide a pellet. The pellet was suspended in PBS (10 mL) and was counted by a hemocytometer to provide cell counts for each experimental condition. The pellet was then centrifuged (4 min at 1,000 rpm) and the supernatant removed and the remaining pellet was quantified via protein and polyamine analysis.\nTo each cell pellet, a perchloric acid (100 μL) buffer solution (0.2M HClO4/1 M NaCl) and 0.9% NaCl (50 μL) was added. The samples were sonicated via sonic dismembranator in small bursts until samples were homogenized and cloudy. Additional perchloric acid (50 μL) buffer solution was added. The homogenized samples were then vortexed and centrifuged (10 min at 4,000 rpm). The supernatants of the respective samples (supernatant #2) were removed and quantified by calibrated pipet (˜190 μL volume). Note: 100 μL of supernatant #2 was placed into a micro-centrifuge tube for polyamine analysis by the N-dansylation HPLC protocol and the rest was placed into a different micro-centrifuge tube for analysis by LCMS of specific amino acid analytes. The respective supernatants were stored in the freezer for polyamine and LCMS quantification and the remaining protein pellet was used for the protein analysis. The protein pellet was dissolved in aq. NaOH (1 mM, 200 μL). The sample stood at room temperature with occasional vortex (45 min) and was then centrifuged (15 min at 15,000 rpm). The supernatant was collected and dissolved protein was quantified using the commercial Pierce BCA kit according to manufacturer's protocol.\nThis example illustrates aspects according to various embodiments pertaining to an LCMS Analysis. […]"}, "[3]": {"system": "CHO-K1 cells", "experiment": "Rescue by exogenous native polyamines in CHO-K1 cells", "format": "cell-based, Chinese hamster", "conditions": "CHO-K1, toxic concentration of compound 10 (results not shown)"}},
  "data": [
    {"smiles": "CC(C)CCN1CCN(C(CNCc2ccccc2)CC2CCCCC2)CC1CC(C)C.Cl.Cl.Cl", "note": "(centres unmarked) [Compound 10, Benzyl-{3-cyclohexyl-2-[3-isobutyl-4-(3-methyl-butyl)-piperazin-1-yl]-propyl}-amine trihydrochloride salt]", "values": [
      {"measurement": "3H-Leucine uptake", "setting": "[1]", "result": "able to inhibit the uptake"},
      {"measurement": "Intracellular level Leucine", "setting": "[2]; 2 μM", "result": "152 ± 8", "unit": "pmol/mg protein"},
      {"measurement": "Intracellular level Methionine", "setting": "[2]; 2 μM", "result": "226 ± 21", "unit": "pmol/mg protein"},
      {"measurement": "Intracellular level Leucine", "setting": "[2]; 5 μM", "result": "94 ± 3", "unit": "pmol/mg protein"},
      {"measurement": "Intracellular level Methionine", "setting": "[2]; 5 μM", "result": "41 ± 23", "unit": "pmol/mg protein"},
      {"measurement": "Intracellular level Leucine", "setting": "[2]; 7 μM", "result": "77 ± 1", "unit": "pmol/mg protein"},
      {"measurement": "Intracellular level Methionine", "setting": "[2]; 7 μM", "result": "Not detected"},
      {"measurement": "rescue of treated cells by native polyamines", "setting": "[3]", "result": "unable to rescue"}
    ]}
  ]
}
